# Data taken from ChEMBL document CHEMBL3045765, “Quantitative structure-fungitoxicity relationships of some monohydric alcohols” (J Agric Food Chem, 2003).
# Tests used:
# [1] = test system: Colletotrichum gloeosporioides; experiment: Fungitoxicity against Colletotrichum gloeosporioides assessed as mycelial growth inhibition by poisoned food technique; assay type: functional, organism-based; settings: for minimal effective concentration: read-out: MEC
# [2] = test system: Colletotrichum gloeosporioides; experiment: Fungitoxicity against Colletotrichum gloeosporioides assessed as mycelial growth inhibition at 1200 mg/L by poisoned food technique; assay type: functional; settings: read-out: GI
Structure (SMILES),EC50 ([1]; read-out: EC50),EC50 ([1]; read-out: pEC50 (converted)),inhibition of growth at 1200 µg/mL [2],minimal effective concentration [1]
CC(C)CO [ISOBUTANOL],8200 µg/mL,–,–,–
C=CC(C)(O)CCC=C(C)C (stereo unspecified) [LINALOOL],1090 µg/mL,7.08 mM,–,–
CC(C)CCO [3-METHYLBUTANOL],3710 µg/mL,41.7 mM,–,–
CC1CCC(C(C)C)C(O)C1 (stereo unspecified) [MENTHOL],452 µg/mL,2.88 mM,–,–
C=C[C@H](O)CCCCC,1290 µg/mL,10 mM,–,–
CCCCCCCCCCCCCCCCO [CETYL ALCOHOL],> 1200 µg/mL,> 5.25 mM,5%,–
CCCO [PROPANOL],8980 µg/mL,–,–,4430 µg/mL
CC(C)[C@@H]1CC[C@@H](C)C[C@@H]1O [(+) NEOMENTHOL],488 µg/mL,3.09 mM,–,–
CCCCCCCCCCCCCCCCCCO [CETOSTEARYL ALCOHOL],> 225 µg/mL,> 1.26 mM,–,> 225 µg/mL
CCO [ALCOHOL],17700 µg/mL,–,–,5490 µg/mL
OCCc1ccccc1 [PHENYLETHYL ALCOHOL],1000 µg/mL,8.13 mM,–,–
CCCCCO [1-PENTANOL],2130 µg/mL,24 mM,–,712 µg/mL
CCCCCCCO [1-HEPTANOL],546 µg/mL,4.68 mM,–,182 µg/mL
CCCCCCCCCCO [DECANOL],112 µg/mL,0.708 mM,–,52 µg/mL
CC(C)(C)O [TERT-BUTANOL],17100 µg/mL,–,–,–
CCCCCCO [1-HEXANOL],1270 µg/mL,12 mM,–,772 µg/mL
CC(C)O [ISOPROPYL ALCOHOL],18200 µg/mL,–,–,–
CC(C)=CCC/C(C)=C/CO [GERANIOL],100 µg/mL,0.646 mM,–,–
OCc1ccccc1 [BENZYL ALCOHOL],1180 µg/mL,11 mM,–,–
CO [METHYL ALCOHOL],24700 µg/mL,–,–,8000 µg/mL
CCCCCCCCO [OCTANOL],298 µg/mL,2.29 mM,–,87 µg/mL
CC(C)=CCCC(C)CCO (stereo unspecified) [CITRONELLOL],84 µg/mL,0.537 mM,–,–
CCCCO [BUTYL ALCOHOL],3690 µg/mL,50.1 mM,–,910 µg/mL
